In patent US5110904A (Abbott Laboratories, priority 1990, dated 1992):
Starred links: 1 amine or outer side, 2 acyl side, 3 side chain; linkers in the order of their positions; H or OH if unused. Non-standard residues stand in square brackets, D forms with d. Residues, ends and D or L forms follow the SMILES beside them. Groups on a side chain read outwards from the residue. *: point of attachment. dPhe(4-Cl) = N[C@H](Cc1ccc(Cl)cc1)C(=O)O; d1Nal = N[C@H](Cc1cccc2ccccc12)C(=O)O; d2Nal = N[C@H](Cc1ccc2ccccc2c1)C(=O)O; X1 = CCNC[C@@H](C(=O)[*:2])N(C)[*:1]; Lys(iPr) = CC(C)NCCCC[C@H](N)C(=O)O; NMeY = CN[C@@H](Cc1ccc(O)cc1)C(=O)O; d3Pal = N[C@H](Cc1cccnc1)C(=O)O; NMeL = CN[C@@H](CC(C)C)C(=O)O; pGlu = O=C1CC[C@@H](C(=O)O)N1; Nicotinoyl = O=C(c1cccnc1)*; NMeS = CN[C@@H](CO)C(=O)O; Morpholide = C1CN(*)CCO1; CO = O=C([*:1])[*:2]; azaGly = NNC(=O)O; Sar = CNCC(=O)O

Columns and labels:
[1] = molecular target: T1, LH release (Rattus norvegicus, UniProt P30969); experiment: In vitro LH release from dissociated rat pituitary cells (agonists); assay type: cell-based; details: negative log of concentration producing half-maximal release of LH, 3 hours at 37° C.
T1 sequence (P30969 1-327): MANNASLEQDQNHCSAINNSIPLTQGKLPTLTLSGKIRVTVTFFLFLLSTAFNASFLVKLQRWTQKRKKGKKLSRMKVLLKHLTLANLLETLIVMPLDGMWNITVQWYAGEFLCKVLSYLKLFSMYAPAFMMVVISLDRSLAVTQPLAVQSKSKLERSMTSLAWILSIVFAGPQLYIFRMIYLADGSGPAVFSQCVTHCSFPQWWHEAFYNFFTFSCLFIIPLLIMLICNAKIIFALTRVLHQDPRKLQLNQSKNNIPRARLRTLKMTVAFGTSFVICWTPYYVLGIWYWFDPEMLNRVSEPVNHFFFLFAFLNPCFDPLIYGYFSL

[2] = molecular target: T1, LH release; experiment: In vivo LH release in castrated rats; details: dose producing half-maximal LH release, time integrated LH response; for ED50: rat, iv, i.v., read-out: ED50 ug/kg i.v.
Method: The compound to be tested is administered to castrated rats intraveneously and the serum LH concentration at various time points is measured by RIA. The time integrated LH response is calculated and the dose producing half-maximal LH release (ED50) is reported.

[3] = molecular target: T2, LHRH receptors (Rattus norvegicus, UniProt P30969); experiment: Radioligand receptor binding assay, rat pituitary membranes; details: radioiodinated [D-Leu6-des Gly10]-LHRH ethyl amide 50 pM, 2 hours at 4° C., read-out: Receptor Binding pkI (converted)
T2 sequence (P30969 1-327): T1 sequence (P30969 1-327)
Method: The radioligand (50 pM), receptors, and compounds to be tested are coincubated for 2 hours at 4° C. Bound ligand is separated from free ligand via centrifugation and aspiration.

[4] = tested on: LH concentration in the blood; experiment: In vivo LH inhibition in male castrate rats; design: species or system rat; details: AUC of log(LHt/LHi) over 24 hours, 30 ug/kg subcutaneous bolus
Method: The compound to be tested is administered at 30 μg/kg subcutaneously by bolus injection to male castrate rats and blood samples are collected periodically over 24 hours. The AUC (area under the curve) of the LH supression data as a function of time is calculated using the formula log (LHt /LHi) wherein LHt is the LH concentration in the blood at time t and LHi is the initial baseline value for the concentration of LH in the blood. The AUC values are negative numbers.

Structure (SMILES)	Ki [3]	ED50 [2]	AUC (24 hr. after 30 ug/kg) [4]	other results
CCNC(=O)[C@@H]1CCCN1C(=O)[C@H](CCCNC(=N)N)NC(=O)[C@H](CC(C)C)NC(=O)[C@@H](CC(C)C)NC(=O)[C@H](Cc1ccc(O)cc1)NC(=O)[C@H](CO)N(C)C(=O)[C@H](Cc1c[nH]c2ccccc12)NC(=O)[C@H](Cc1c[nH]cn1)NC(=O)[C@@H]1CCC(=O)N1 [Ex. 1, (pyro)Glu-His-Trp-N-Me-Ser-Tyr-D-Leu-Leu-Arg-Pro-NHEt] ([pGlu]HW[NMeS]Y[dL]LRP-NHEt)		7.2 µg/kg		LH Release pD2 [1]: 9.43
CC(C)C[C@H](NC(=O)[C@@H](Cc1ccc2ccccc2c1)NC(=O)[C@H](Cc1ccc(O)cc1)NC(=O)[C@H](CO)N(C)C(=O)[C@H](Cc1c[nH]c2ccccc12)NC(=O)[C@H](Cc1c[nH]cn1)NC(=O)[C@@H]1CCC(=O)N1)C(=O)N[C@@H](CCCNC(=N)N)C(=O)N1CCC[C@H]1C(=O)NCC(N)=O [Ex. 3, (pyro)Glu-His-Trp-N-Me-Ser-Tyr-D-(2)-Nal-Leu-Arg-Pro-Gly-NH2]		0.129 µg/kg		
CCNC[C@@H](C(=O)N[C@@H](Cc1ccc(O)cc1)C(=O)N[C@H](Cc1c[nH]c2ccccc12)C(=O)N[C@@H](CC(C)C)C(=O)N[C@@H](CCCNC(=N)N)C(=O)N1CCC[C@H]1C(=O)NCC)N(C)C(=O)[C@H](Cc1c[nH]c2ccccc12)NC(=O)[C@H](Cc1c[nH]cn1)NC(=O)CN(C)C(C)=O [Ex. 7, N-Ac-Sar-His-Trp-(3)-N-Et-(2)-N-Me-Dap-Tyr-D-Trp-Leu-Arg-Pro-NHEt] (Ac-[Sar]HW[X1]Y[dW]LRP-NHEt)				LH Release pD2 [1]: 9.73; ED50 ug/kg i.v. [2]: 9.64 µg/kg
CCNC(=O)CC[C@H](NC(=O)NCC)C(=O)N[C@@H](Cc1c[nH]cn1)C(=O)N[C@@H](Cc1c[nH]c2ccccc12)C(=O)N(C)[C@@H](CO)C(=O)N[C@@H](Cc1ccc(O)cc1)C(=O)N[C@H](Cc1c[nH]c2ccccc12)C(=O)N[C@@H](CC(C)C)C(=O)N[C@@H](CCCNC(=N)N)C(=O)N1CCC[C@H]1C(=O)NCC [Ex. 12, (2)-N-(Ethylaminocarbonyl)-(5)-N-ethylamido-Glu-His-Trp-N-Me-Ser-Tyr-D-Trp- Leu-Arg-Pro-NHEt]	1.05 nM	9.9 µg/kg		LH Release pD2 [1]: 9.31
CCNC(=O)[C@@H]1CCCN1C(=O)[C@H](CCCNC(=N)N)NC(=O)[C@H](CC(C)C)NC(=O)[C@@H](Cc1c[nH]c2ccccc12)NC(=O)[C@H](Cc1ccc(O)cc1)NC(=O)[C@H](CO)N(C)C(=O)[C@H](Cc1c[nH]c2ccccc12)NC(=O)[C@H](Cc1c[nH]cn1)NC(=O)CN(C)C(C)=O [Ex. 14, N-AcSar-His-Trp-N-Me-Ser-Tyr-D-Trp-Leu-Arg-Pro-NHEt] (Ac-[Sar]HW[NMeS]Y[dW]LRP-NHEt)		0.39 µg/kg		
CCNC(=O)[C@@H]1CCCN1C(=O)[C@H](CCCNC(=N)N)NC(=O)[C@H](CC(C)C)NC(=O)[C@@H](Cc1c[nH]c2ccccc12)NC(=O)[C@H](Cc1ccc(O)cc1)NC(=O)[C@H](CO)N(C)C(=O)[C@H](Cc1c[nH]c2ccccc12)NC(=O)[C@H](Cc1c[nH]cn1)NC(=O)[C@@H]1CCC(=O)N1 [Ex. 15, (pyro)Glu-His-Trp-N-Me-Ser-Tyr-D-Trp-Leu-Arg-Pro-NHEt]		1.38 µg/kg		
CC(=O)N[C@H](Cc1ccc2ccccc2c1)C(=O)N[C@H](Cc1ccc(Cl)cc1)C(=O)N[C@H](Cc1cccnc1)C(=O)N[C@@H](CO)C(=O)N(C)[C@@H](Cc1ccc(O)cc1)C(=O)N[C@H](CCCCNC(=O)c1cccnc1)C(=O)N(C)[C@@H](CC(C)C)C(=O)N[C@@H](CCCCNC(C)C)C(=O)N1CCC[C@H]1C(=O)N[C@H](C)C(N)=O [Ex. 67, N-Ac-D-2-Nal-D-4-Cl-Phe-D-3-Pal-Ser-N-Me-Tyr-D-Lys(N-epsilon-nicotinyl)-N-Me-Leu-Lys(N-epsilon-isopropyl)-Pro-D-AlaNH2] (Ac-[d2Nal][dPhe(4-Cl)][d3Pal]S[NMeY][dK](Nicotinoyl)[NMeL][Lys(iPr)]P[dA]-NH2)	0.0302 nM		-400	
CC(C)C[C@H](NC(=O)CNC(=O)[C@H](Cc1ccc(O)cc1)NC(=O)[C@H](CO)NC(=O)[C@H](Cc1c[nH]c2ccccc12)NC(=O)[C@H](Cc1c[nH]cn1)NC(=O)[C@@H]1CCC(=O)N1)C(=O)N[C@@H](CCCNC(=N)N)C(=O)N1CCC[C@H]1C(=O)NCC(N)=O [LHRH, reference compound]		100 µg/kg		

Further lines, with some results ahead:

Ki [3]	Structure (SMILES)	ED50 [2]	AUC (24 hr. after 30 ug/kg) [4]	other results
0.0447 nM	CC(=O)N(C)CC(=O)N[C@H](Cc1ccc(Cl)cc1)C(=O)N[C@H](Cc1cccc2ccccc12)C(=O)N[C@@H](CO)C(=O)N(C)[C@@H](Cc1ccc(O)cc1)C(=O)N[C@H](CCCCNC(=O)c1cccnc1)C(=O)N[C@@H](CC(C)C)C(=O)N[C@@H](CCCCNC(C)C)C(=O)N1CCC[C@H]1C(=O)N[C@H](C)C(N)=O [Ex. 63, N-Ac-Sar-D-4-Cl-Phe-D-1-Nal-Ser-N-Me-Tyr-D-Lys(N-epsilon-nicotinyl)-Leu-Lys(N-epsilon-isopropyl)-Pro-D-AlaNH2] (Ac-[Sar][dPhe(4-Cl)][d1Nal]S[NMeY][dK](Nicotinoyl)L[Lys(iPr)]P[dA]-NH2)		-707	
0.0575 nM	CC(=O)NNC(=O)N[C@H](Cc1ccc(Cl)cc1)C(=O)N[C@H](Cc1cccc2ccccc12)C(=O)N[C@@H](CO)C(=O)N(C)[C@@H](Cc1ccc(O)cc1)C(=O)N[C@H](CCCCNC(=O)c1cccnc1)C(=O)N[C@@H](CC(C)C)C(=O)N[C@@H](CCCCNC(C)C)C(=O)N1CCC[C@H]1C(=O)N[C@H](C)C(N)=O [Ex. 65, N-Ac-alpha-Azagly-D-4-Cl-Phe-D-1-Nal-Ser-N-Me-Tyr-D-Lys(N-epsilon-nicotinyl)-Leu-Lys(N-epsilon-isopropyl)-Pro-D-AlaNH2] (Ac-[azaGly][dPhe(4-Cl)][d1Nal]S[NMeY][dK](Nicotinoyl)L[Lys(iPr)]P[dA]-NH2)		-1114	
0.017 nM	CC(=O)N[C@H](Cc1ccc2ccccc2c1)C(=O)N[C@H](Cc1ccc(Cl)cc1)C(=O)N[C@H](Cc1cccnc1)C(=O)N[C@@H](CO)C(=O)N(C)[C@@H](Cc1ccc(O)cc1)C(=O)N[C@H](CCCCNC(=O)N1CCOCC1)C(=O)N[C@@H](CC(C)C)C(=O)N[C@@H](CCCCNC(C)C)C(=O)N1CCC[C@H]1C(=O)N[C@H](C)C(N)=O [Ex. 69] (Ac-[d2Nal][dPhe(4-Cl)][d3Pal]S[NMeY][dK]([CO-Morpholide])L[Lys(iPr)]P[dA]-NH2)		-467	
